Results: PubChem BioAssay (NCI)
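The compound was tested at five concentrations on cells cultured in 96-well plates, with a 48-hour exposure period. TGI marks complete inhibition of growth.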

Experiments:
Experiment in all cases: growth of human tumour cells (NCI), 48 h
SNB-19 CNS = tested on: SNB-19 CNS
MCF7 breast = tested on: MCF7 breast
SK-MEL-2 melanoma = tested on: SK-MEL-2 melanoma
MALME-3M melanoma = tested on: MALME-3M melanoma
HOP-92 NSCLC = tested on: HOP-92 NSCLC
M14 melanoma = tested on: M14 melanoma
HT29 colon = tested on: HT29 colon
NCI-H226 lung = tested on: NCI-H226 lung
BT-549 breast = tested on: BT-549 breast
A549 NSCLC = tested on: A549 NSCLC
MDA-MB-231 breast = tested on: MDA-MB-231 breast
MDA-MB-435 = tested on: MDA-MB-435
RPMI-8226 leukemia = tested on: RPMI-8226 leukemia
UO-31 renal = tested on: UO-31 renal
LOX IMVI melanoma = tested on: LOX IMVI melanoma
MOLT-4 leukemia = tested on: MOLT-4 leukemia
SF-268 CNS = tested on: SF-268 CNS
HCT-116 colon = tested on: HCT-116 colon
MDA-N = tested on: MDA-N
SR leukemia = tested on: SR leukemia
HL-60(TB) leukemia = tested on: HL-60(TB) leukemia
786-0 renal = tested on: 786-0 renal
NCI-H460 lung = tested on: NCI-H460 lung
SK-OV-3 ovarian = tested on: SK-OV-3 ovarian
SNB-75 CNS = tested on: SNB-75 CNS
U251 CNS = tested on: U251 CNS
DU-145 prostate = tested on: DU-145 prostate
NCI-H522 lung = tested on: NCI-H522 lung
COLO 205 colon = tested on: COLO 205 colon
HS 578T breast = tested on: HS 578T breast
TK-10 renal = tested on: TK-10 renal
SK-MEL-28 melanoma = tested on: SK-MEL-28 melanoma
T-47D breast = tested on: T-47D breast
SW-620 colon = tested on: SW-620 colon
HOP-62 NSCLC = tested on: HOP-62 NSCLC
HCT-15 colon = tested on: HCT-15 colon
CAKI-1 renal = tested on: CAKI-1 renal
PC-3 prostate = tested on: PC-3 prostate
ACHN renal = tested on: ACHN renal
SK-MEL-5 melanoma = tested on: SK-MEL-5 melanoma
NCI/ADR-RES ovarian = tested on: NCI/ADR-RES ovarian
SF-295 CNS = tested on: SF-295 CNS
OVCAR-4 ovarian = tested on: OVCAR-4 ovarian
NCI-H23 lung = tested on: NCI-H23 lung
SF-539 CNS = tested on: SF-539 CNS
OVCAR-3 ovarian = tested on: OVCAR-3 ovarian
UACC-62 melanoma = tested on: UACC-62 melanoma
EKVX NSCLC = tested on: EKVX NSCLC
KM12 colon = tested on: KM12 colon
RXF 393 renal = tested on: RXF 393 renal
K-562 leukemia = tested on: K-562 leukemia
SN12C renal = tested on: SN12C renal
UACC-257 melanoma = tested on: UACC-257 melanoma
IGROV1 ovarian = tested on: IGROV1 ovarian
HCC-2998 colon = tested on: HCC-2998 colon
OVCAR-5 ovarian = tested on: OVCAR-5 ovarian
A498 renal = tested on: A498 renal
OVCAR-8 ovarian = tested on: OVCAR-8 ovarian
CCRF-CEM leukemia = tested on: CCRF-CEM leukemia

For COc1ccc2c(c1)C(OC)C1c3c(cc4c(c3-2)OCO4)CCN1C (centres undefined), the TGI (SNB-19 CNS) was 19.3 µM, the TGI (MCF7 breast) was 8.13 µM and the TGI (SK-MEL-2 melanoma) was 7.9 µM. The TGI (MALME-3M melanoma) was 3.97 µM, the TGI (HOP-92 NSCLC) was 11.8 µM and the TGI (M14 melanoma) was 7.84 µM. The TGI (HT29 colon) was 14.1 µM, the TGI (NCI-H226 lung) was 9.09 µM and the TGI (BT-549 breast) was 8.48 µM. For the same compound, the TGI (A549 NSCLC) was 9.87 µM, the TGI (MDA-MB-231 breast) was 9.59 µM and the TGI (MDA-MB-435) was 13.1 µM. For the same compound, the TGI (RPMI-8226 leukemia) was 20.6 µM, the TGI (UO-31 renal) was 4.59 µM and the TGI (LOX IMVI melanoma) was greater than 32 µM. It also gave a TGI (MOLT-4 leukemia) greater than 51.7 µM, a TGI (SF-268 CNS) of 20.2 µM and a TGI (HCT-116 colon) greater than 71.7 µM. It also gave a TGI (MDA-N) of 12 µM, a TGI (SR leukemia) greater than 42.3 µM and a TGI (HL-60(TB) leukemia) greater than 20.6 µM. It also gave a TGI (786-0 renal) greater than 40.9 µM, a TGI (NCI-H460 lung) of 8.83 µM and a TGI (SK-OV-3 ovarian) of 23.1 µM. The TGI (SNB-75 CNS) was 15.6 µM, the TGI (U251 CNS) was 18.9 µM and the TGI (DU-145 prostate) was greater than 52 µM. It also gave a TGI (NCI-H522 lung) of 6.23 µM, a TGI (COLO 205 colon) greater than 43.6 µM and a TGI (HS 578T breast) of 5.35 µM. For the same compound, the TGI (TK-10 renal) was greater than 63.8 µM, the TGI (SK-MEL-28 melanoma) was 19.8 µM and the TGI (T-47D breast) was greater than 63.7 µM. It also gave a TGI (SW-620 colon) of 18.7 µM, a TGI (HOP-62 NSCLC) of 8.34 µM and a TGI (HCT-15 colon) of 10.2 µM. The TGI (CAKI-1 renal) was 7.32 µM, the TGI (PC-3 prostate) was 9.34 µM and the TGI (ACHN renal) was 8.03 µM. For the same compound, the TGI (SK-MEL-5 melanoma) was 5.17 µM, the TGI (NCI/ADR-RES ovarian) was 7.45 µM and the TGI (SF-295 CNS) was 11.7 µM. For the same compound, the TGI (OVCAR-4 ovarian) was 10.3 µM, the TGI (NCI-H23 lung) was 11.1 µM and the TGI (SF-539 CNS) was 8.38 µM. For the same compound, the TGI (OVCAR-3 ovarian) was 25.1 µM, the TGI (UACC-62 melanoma) was 5.08 µM and the TGI (EKVX NSCLC) was 24.3 µM. The TGI (KM12 colon) was 18.6 µM, the TGI (RXF 393 renal) was 6.43 µM and the TGI (K-562 leukemia) was greater than 57.3 µM. For the same compound, the TGI (SN12C renal) was 12.1 µM, the TGI (UACC-257 melanoma) was 13 µM and the TGI (IGROV1 ovarian) was 14.8 µM. The TGI (HCC-2998 colon) was 14.3 µM, the TGI (OVCAR-5 ovarian) was 16.8 µM and the TGI (A498 renal) was 4.96 µM. For the same compound, the TGI (OVCAR-8 ovarian) was 13.9 µM.

With COc1c(C(C)(C)C)cc(CC2C(=O)C=CC2=O)cc1C(C)(C)C the TGI (SNB-19 CNS) was 33.9 µM, the TGI (MCF7 breast) was 45.5 µM and the TGI (SK-MEL-2 melanoma) was 36.7 µM. The TGI (MALME-3M melanoma) was 49.6 µM, the TGI (HOP-92 NSCLC) was 37 µM and the TGI (M14 melanoma) was 39.6 µM. It also gave a TGI (HT29 colon) of 36.1 µM, a TGI (BT-549 breast) of 41.1 µM and a TGI (CCRF-CEM leukemia) of 14.9 µM. The TGI (A549 NSCLC) was 55.4 µM, the TGI (MDA-MB-231 breast) was 36.5 µM and the TGI (MDA-MB-435) was 37.4 µM. The TGI (RPMI-8226 leukemia) was 11.6 µM, the TGI (UO-31 renal) was 27.5 µM and the TGI (LOX IMVI melanoma) was 40.2 µM. It also gave a TGI (MOLT-4 leukemia) of 10.3 µM, a TGI (SF-268 CNS) of 40 µM and a TGI (HCT-116 colon) of 13 µM. For the same compound, the TGI (MDA-N) was 39.6 µM, the TGI (SR leukemia) was 19.1 µM and the TGI (HL-60(TB) leukemia) was 11.3 µM. It also gave a TGI (786-0 renal) greater than 22.3 µM, a TGI (NCI-H460 lung) of 41.2 µM and a TGI (SK-OV-3 ovarian) of 56 µM. The TGI (U251 CNS) was 35.4 µM, the TGI (DU-145 prostate) was 15.5 µM and the TGI (NCI-H522 lung) was 5.03 µM. For the same compound, the TGI (COLO 205 colon) was 24 µM, the TGI (HS 578T breast) was 70.4 µM and the TGI (TK-10 renal) was 12.1 µM. It also gave a TGI (SK-MEL-28 melanoma) of 43.4 µM, a TGI (T-47D breast) of 12.7 µM and a TGI (SW-620 colon) of 28.2 µM. It also gave a TGI (HOP-62 NSCLC) of 36.9 µM, a TGI (HCT-15 colon) of 37.6 µM and a TGI (CAKI-1 renal) of 30.5 µM. For the same compound, the TGI (PC-3 prostate) was 35.8 µM, the TGI (ACHN renal) was 22.5 µM and the TGI (SK-MEL-5 melanoma) was 33.9 µM. The TGI (NCI/ADR-RES ovarian) was greater than 80.6 µM, the TGI (SF-295 CNS) was 44 µM and the TGI (OVCAR-4 ovarian) was 89.5 µM. The TGI (NCI-H23 lung) was 48.9 µM, the TGI (SF-539 CNS) was 48.3 µM and the TGI (OVCAR-3 ovarian) was 33.9 µM. For the same compound, the TGI (UACC-62 melanoma) was 33.2 µM, the TGI (EKVX NSCLC) was 37.7 µM and the TGI (KM12 colon) was 34 µM. For the same compound, the TGI (RXF 393 renal) was 30.4 µM, the TGI (K-562 leukemia) was 14.1 µM and the TGI (SN12C renal) was greater than 73 µM. It also gave a TGI (UACC-257 melanoma) of 32.4 µM, a TGI (IGROV1 ovarian) of 29.2 µM and a TGI (OVCAR-5 ovarian) of 35.8 µM. It also gave a TGI (A498 renal) of 32.9 µM and a TGI (OVCAR-8 ovarian) of 66.9 µM.
